# Measurements reported in US20050288247A1, “Inducible inactivation of synaptic transmission” (Cold Spring Harbor Laboratory, priority 2004, published 2005).
# Assays:
# [1] = test system: synaptic transmission of cortical neurons in cultured brain slices; test: Evoked EPSCs in cultured brain slices infected with adenovirus-based VAMP MIST construct; format: cell-based
# Description: We first tested the VAMP MIST construct in cultured brain slices. The adenovirus-based VAMP MIST construct was used to infect cortical neurons in cultured brain slices. Synaptic transmission was evoked with extracellular stimulation.
# [2] = test system: synaptic transmission in acute cortical brain slices; test: Whole cell EPSC measurements in layer 2 pyramidal neurons in acute brain slices; format: cell-based, mice
# Description: We further characterized CID-dependent inactivation of synaptic transmission using whole cell measurements of EPSC in layer (L) 2 pyramidal neurons in acute brain slices. MIST constructs were introduced into L 3 cells in vivo using in utero viral vector mediated gene delivery (VAMP/Syb MIST) or electroporation (Sph-StxTM MIST). Synaptic transmission was evoked with an extracellular stimulation electrode placed in a band of transfected/infected neurons, below (within 200 μm) the recording pipette.
# Cortical brain slices (300 μm thick) were prepared from young mice (postnatal day 9-14) using a vibrating-blade microtome (VT1000S, Leica Microsystems). Chilled cutting solution contained 110 mM choline chloride, 25 mM NaHCO3, 25 mM D-glucose, 11.6 mM sodium ascorbate, 7 mM MgSO4, 3.1 mM sodium pyruvate, 2.5 mM KCl, 1.25 mM NaH2PO4, and 0.5 mM CaCl2. Slices were then transferred to artificial cerebrospinal fluid (“ACSF”) containing 127 mM NaCl, 25 mM NaHCO3, 25 mM D-glucose, 2.5 mM KCl, 2 mM MgCl2,1 mM CaCl2, and 1.25 mM NaH2PO4, aerated with 95% O2/5% CO2. Slices in ACSF were first incubated at 34° C. for 0.5 hr, then maintained at room temperature prior to use. For recordings, ACSF contained 4 mM MgCl2, 4 mM CaCl2 and […] CPP.
# Neurons were visualized with infrared differential interference contrast optics, and patched using borosilicate electrodes (resistances, 4-7 MΩ). Access resistances were in the range 10-30 MΩ. Intracellular solution contained 120 mM CsMeSO3, 20 mM CsCl, 4 mM NaCl, 10 mM HEPES, 10 mM BAPTA, 4 mM Mg2ATP, and 0.3 mM Na2GTP, 14 mM sodium phosphocreatine, 3 mM ascorbate, and 0.1 Alexa-594 (Molecular Probes); pH was adjusted to 7.25 with CsOH. Excitatory currents were measured at a holding potential of −65 mV, close to reversal for fast inhibition. MIST-expressing neurons were stimulated with tungsten bipolar electrode in the middle of transfected region, and monosynaptic responses were recorded from cells within […]. Responses were amplified (Multiclamp, Axon Instruments), filtered at 1 kHz, and digitized at 10 kHz. […]
compound,measurement,setting,value
CC[C@H](C(=O)N1CCCC[C@H]1C(=O)O[C@H](CCc1ccc(OC)c(OC)c1)c1cccc(OCC(=O)NCC(CNC(=O)COc2cccc([C@@H](CCc3ccc(OC)c(OC)c3)OC(=O)[C@@H]3CCCCN3C(=O)[C@@H](CC)c3cc(OC)c(OC)c(OC)c3)c2)CN(C)C)c1)c1cc(OC)c(OC)c(OC)c1 [AP20187],amplitudes of monosynaptic EPSC and network discharge,"[1]; 20 nM AP20187 in DMSO added to the bath, VAMP MIST infected slices",rapid decrease
same,amplitude of monosynaptic EPSCs,"[2]; bath application 100 nM AP20187, VAMP/Syb MIST",rapid decrease
AP21967,amplitude of monosynaptic EPSCs,"[2]; bath application 500 nM AP21967, Sph-StxTM MIST",rapid decrease
CC[C@H](C(=O)N1CCCCC1C(=O)O[C@H](CCc1ccc(OC)c(OC)c1)c1cccc(OCC(=O)NCCCN(C)C)c1)c1cc(OC)c(OC)c(OC)c1 (some centres unmarked) [AP21998],recovery of monosynaptic EPSC and network discharge,[1]; 200 nM AP21998 reverser after homodimerizer,rapid recovery
same,recovery of synaptic response with reverser,"[2]; excess of monomeric reverser, 5 μM AP21998",rapid partial recovery
